# Tests used:
# AMPKα = test: Western blot of p-AMPKα T172 in MT330 cells; assay type: cell-based; settings: Baf 100 nM, 3 h
# Description: FIGS. 1A to 1H show STAT3 deletion activates autophagy through AMPKα-ULK1-TSC2 signaling pathways in MT330 cells. […] Untreated (UT) cells served as controls. Total cell lysates were prepared and immunoblotted with indicated antibodies. […] Blots were stripped and probed for total-AMPKα. […] Blots were stripped and probed for total-ULK1. […] Blots were stripped and probed with total-TSC2 antibody.
# (§1) Cell lysates were prepared using mammalian protein extraction buffer (Cell Signaling Technology) and a protease inhibitor cocktail followed by SDS-PAGE. Proteins were transferred to Immobilon-P membranes (Millipore Bedford) and probed with primary antibodies overnight at 4° C. in TBS buffer containing 0.1% Tween-20 and 5% nonfat dry milk (Bio-Rad). Membranes were subsequently incubated with horseradish peroxidase-conjugated secondary antibodies at room temperature for 1 h, and the immunocomplexes were visualized by the ECL detection system (Perkin Elmer) quantified on the Azure Biosystems C500. Membranes were stripped and re-probed for actin or GAPDH as loading controls. Representative Western blots from three experiments are shown. Densitometric analysis of all Western blots was performed using Image J software.
# ULK1 = molecular target: T1, ULK1 (Homo sapiens, UniProt O75385); test: Western blot of ULK1 signaling (p-ATG14, p-Beclin1, p-ULK1) in MT330 cells; assay type: cell-based; settings: Baf 100 nM, 3 h
# T1 sequence (O75385 1-1050): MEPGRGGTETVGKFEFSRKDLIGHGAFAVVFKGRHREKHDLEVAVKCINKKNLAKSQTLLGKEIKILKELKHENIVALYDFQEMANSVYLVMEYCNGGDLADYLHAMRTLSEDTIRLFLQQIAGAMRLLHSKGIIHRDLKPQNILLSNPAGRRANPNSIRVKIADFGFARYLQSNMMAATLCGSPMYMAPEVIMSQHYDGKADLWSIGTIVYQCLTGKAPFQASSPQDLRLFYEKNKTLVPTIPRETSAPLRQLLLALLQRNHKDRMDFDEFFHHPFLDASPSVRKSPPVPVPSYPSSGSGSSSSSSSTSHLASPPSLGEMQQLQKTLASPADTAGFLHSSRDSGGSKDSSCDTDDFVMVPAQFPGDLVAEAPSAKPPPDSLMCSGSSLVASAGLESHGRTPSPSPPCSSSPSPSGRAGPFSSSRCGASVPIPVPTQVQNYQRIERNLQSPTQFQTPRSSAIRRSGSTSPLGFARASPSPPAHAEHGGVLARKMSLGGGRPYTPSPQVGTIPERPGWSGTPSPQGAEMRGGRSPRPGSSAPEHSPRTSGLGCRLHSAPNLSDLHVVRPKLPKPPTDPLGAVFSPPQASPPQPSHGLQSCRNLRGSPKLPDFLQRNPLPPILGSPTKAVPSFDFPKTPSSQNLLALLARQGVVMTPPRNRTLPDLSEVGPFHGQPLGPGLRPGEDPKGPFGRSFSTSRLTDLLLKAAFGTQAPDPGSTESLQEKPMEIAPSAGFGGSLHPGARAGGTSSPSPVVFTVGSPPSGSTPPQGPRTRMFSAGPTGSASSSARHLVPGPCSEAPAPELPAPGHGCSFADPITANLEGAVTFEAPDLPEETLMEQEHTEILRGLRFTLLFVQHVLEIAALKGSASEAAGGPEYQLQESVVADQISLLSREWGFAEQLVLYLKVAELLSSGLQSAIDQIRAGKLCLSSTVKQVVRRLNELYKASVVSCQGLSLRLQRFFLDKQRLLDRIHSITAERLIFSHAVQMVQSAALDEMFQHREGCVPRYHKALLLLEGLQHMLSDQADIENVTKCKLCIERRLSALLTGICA
# MT330 cells [1] = test: Immunolocalization of LC3 and p62 in MT330 cells; assay type: cell-based
# Description: EV MT330 cells, STAT3-KO, STAT3-KO cells rescued with WT-STAT3, were grown on chamber slides, and treated with or without 1 μM Baf for 48 h. Cells were fixed and immunostained for LC3, p62, and counterstained with DAPI, and analysed by confocal microscopy. Scale bar […].
# Cells were cultured in chamber slides (Millipore) to ˜70% confluence and washed with PBS. Cells were fixed in 4% paraformaldehyde and methanol, and permeabilized with 1% Triton X-100. After blocking with 5% goat serum, cells were incubated with anti-rabbit LC3 and anti-mouse p62 antibodies and subsequently stained with Alexa Fluor 488 (goat anti-rabbit) and Alexa Fluor 633 (goat anti-mouse) secondary antibodies, as described previously. 24 DNA was counterstained with Vectashield mounting media with DAPI (Vectra Laboratories). Images were captured on a Zeiss LSM700 laser scanning confocal microscope.
# MT330 cells [2] = test: Western blot of LC3-II and p62 (autophagy flux) in MT330 cells; assay type: cell-based
# Description: FIGS. 3A to 3H show STAT3-KO activates autophagy through mTOR-independent but Prom1-dependent signalling pathways in MT330 cells. […] Cell lysates were analysed for LC3-I/II, p62 and CathepsinD.
# (§2) FIGS. 3B and 3C show quantification of LC3-II/Actin ratio (FIG. 3B) and p62/Actin ratio (FIG. 3C). […] Cell lysates were immunoblotted with the indicated antibodies and beta actin was used as an internal loading control. […] Cell lysates were analyzed by Western blotting using antibodies specific for STAT3, Prom1 and LC3-I/II.
# (§3) Total cell lysates were immunoblotted with indicated antibodies with p-Actin serving as a loading control. FIGS. 6B to 6E show quantification of the ratio of phospho- and total-ATG14 (FIG. 6B); phospho- and total-Beclin1 (FIG. 6C); phospho- and total-ULK1 (FIG. 6D); and LC3-II and Actin (FIG. 6E).
# (§4) ULK1 knockdown was verified by Western blotting with ULK1 and phospho-ULK1, and cell lysates were analysed for LC3, cleaved caspase-3 with p-Actin as a loading control. FIGS. 7B to 7D show quantification of the ratio of total-ULK1 and Actin (FIG. 7B); LC3-II and Actin (FIG. 7C); active caspase-3 and Actin (FIG. 7D).
# as §1
# mTORC1 = test: Western blot of mTOR S2448 and S6 phosphorylation in MT330 cells; assay type: cell-based
# Description: as §2, §3, §1
# AMPK = settings: cited from earlier work
# autophagy = settings: cited from earlier work
# mTORC1 and AMPK = settings: cited from earlier work
# MT330 cells [3] = test: Caspase-3 cleavage Western blot (apoptosis) in MT330 cells; assay type: cell-based; settings: MRT68921 20 μM, 5 h
# Description: as §3, §4
# as §1, with “Densitometric analysis of all Western blots was performed using Image J software.” left out
# MT330 cells [4] = test: Cell death ELISA (DNA fragmentation) in MT330 cells; assay type: cell-based; settings: STAT3-KO and mutant expressing cells vs control cells, MRT68921 20 μM, 5 h
# Description: as §3, §4
# The quantitative DNA fragmentation assay was performed using a cell death ELISA kit as described earlier (Bhattacharya S, et al. Apoptosis. 2014 19(3):451-466). […] Cells were lysed, and an aliquot of the nuclei-free supernatant was placed in streptavidin-coated plates and incubated with anti-histone biotin and anti-DNA peroxidase-conjugated antibodies for 2 h at room temperature. After incubation, the samples were aspirated, and the wells were washed 3 times with incubation buffer. […] The absorbance was read at 405 nm using the SpectraMax iD3 microplate reader (Molecular Devices). Results were expressed as absorbance at 405 nm/mg protein/min.
# [5] = system: hepatocellular carcinoma (HCC) cells; settings: cited from earlier work
# [6] = EV MT330 cells, Everolimus (RAD001) 10 μM, 3 h
compound,measurement,setting,value
"CO/C1=C\C(C)=C\[C@@H](C)[C@@H](O)[C@@H](C)C/C(C)=C/C=C/[C@H](OC)[C@@H]([C@@H](C)[C@@H](O)[C@H](C)[C@@]2(O)C[C@@H](O)[C@H](C)[C@@H](C(C)C)O2)OC1=O [Bafilomycin, Bafilomycin A1]",AMPKα phosphorylation,AMPKα,no effect
same,ULK1 phosphorylation,ULK1,no effect
same,LC3 and p62 staining,"MT330 cells [1]; EV MT330 cells, Baf 1 μM, 48 h",no effect
same,LC3+ and p62 puncta formation and co-localization,"MT330 cells [1]; STAT3-KO MT330 cells, bafilomycin 48 h",increased
same,LC3-II levels,"MT330 cells [2]; MT330 cells expressing the S727A mutant, Baf 100 nM, 3 h",did not significantly change
same,p62 accumulation,"MT330 cells [2]; STAT3-KO MT330 cells, Baf 100 nM, 3 h",partially increased
same,LC3-II levels,"MT330 cells [2]; STAT3-deleted MT330 cells, Baf 100 nM, 3 h",further increased
same,LC3-II levels,"MT330 cells [2]; control MT330 EV cells, Baf 100 nM, 3 h",no effect
"CO[C@H]1C[C@@H]2CC[C@@H](C)[C@@](O)(O2)C(=O)C(=O)N2CCCC[C@H]2C(=O)O[C@H]([C@H](C)C[C@@H]2CC[C@@H](OCCO)[C@H](OC)C2)CC(=O)[C@H](C)/C=C(\C)[C@@H](O)[C@@H](OC)C(=O)[C@H](C)C[C@H](C)/C=C/C=C/C=C/1C [Everolimus, everolimus]",mTOR S2448 phosphorylation,mTORC1; [6],inhibited
same,pS6K phosphorylation (downstream target of mTORC1),mTORC1; [6],inhibited
same,autophagy induction (LC3-II/Actin ratio),MT330 cells [2]; [6],no significant effect
same,autophagic flux,"MT330 cells [2]; cells lacking STAT3 and STAT3-KO cells expressing STAT3 phosphodeficient mutants, Everolimus 10 μM ± Baf 100 nM, 3 h",enhances autophagic flux
CCn1c(-c2nonc2N)nc2c(C#CC(C)(C)O)ncc(OC[C@H]3CCCNC3)c21 [GSK690693],IC50,AMPK,0.05 µM
O=C1Nc2ccc(C(=O)c3ccco3)cc2/C1=C/c1cc(Cl)c(O)c(Cl)c1 [GW406108X],effect on autophagy / autophagic flux,autophagy,blocks autophagic flux
same,effect on upstream signaling kinases mTORC1 and AMPK,mTORC1 and AMPK,without affecting
Cl.O=C(NCCCNc1nc(Nc2cccc(CN3CCOCC3)c2)ncc1C1CC1)C1CCC1 [MRT67307 hydrochloride],effect on autophagy / autophagic flux,autophagy,blocks autophagy
CN1CCc2cc(Nc3ncc(C4CC4)c(NCCCNC(=O)C4CCC4)n3)ccc2C1 [MRT68921],effect on autophagy / autophagic flux,autophagy,blocks autophagy flux
same,mTOR S2448 phosphorylation,"mTORC1; MT330 cells, MRT68921 20 μM, 5 h",did not significantly block
same,apoptosis by caspase-3 cleavage,MT330 cells [3]; STAT3-KO and STAT3-mutant expressing lines,induced apoptosis
same,apoptosis by caspase-3 cleavage,MT330 cells [3]; control EV and WT-STAT3 reconstituted cells,not
same,apoptotic cell death (DNA fragmentation) by ELISA,MT330 cells [4],significantly increased apoptosis
same,LC3-II levels,"MT330 cells [2]; STAT3-KO cells and Y705F or S727A mutant cells, MRT68921 20 μM, 5 h",significantly increased
same,autophagy flux,"MT330 cells [2]; cells lacking functional STAT3, MRT68921 20 μM ± Baf 100 nM, 5 h",blocks autophagy flux
COC(=O)c1cc2c(OC(C)C)cc(OC(C)C)cc2[nH]1 [XST-14],effect on autophagy / autophagic flux,autophagy,induces autophagy inhibition
same,apoptosis in hepatocellular carcinoma (HCC) cells,[5],induces apoptosis
